We go through two molecules from paper PMC6995562, “Evaluating Iso-Mukaadial Acetate and Ursolic Acid Acetate as Plasmodium falciparum Hypoxanthine-Guanine-Xanthine Phosphoribosyltransferase Inhibitors” (Biomolecules, 2019).

Like-named read-outs stand apart in the source and are kept apart here.

This test addresses T1, Plasmodium falciparum hypoxanthine-guanine-xanthine phosphoribosyltransferase (PfHGXPRT) (Plasmodium falciparum, UniProt Q8IJS1).
T1 construct: gene PF3D7_1012400; recombinant, N-terminal His6 tag (pET28-a), expressed in E. coli BL21 (DE3)
The experiment in a line: microscale thermophoresis (MST) with labelled His-tagged protein; UV-Vis spectral change. Type of test: binding. On the technique in general: Microscale thermophoresis detects binding through changes in fluorescence in a small temperature gradient.

T1 sequence (Q8IJS1 entry or part of it): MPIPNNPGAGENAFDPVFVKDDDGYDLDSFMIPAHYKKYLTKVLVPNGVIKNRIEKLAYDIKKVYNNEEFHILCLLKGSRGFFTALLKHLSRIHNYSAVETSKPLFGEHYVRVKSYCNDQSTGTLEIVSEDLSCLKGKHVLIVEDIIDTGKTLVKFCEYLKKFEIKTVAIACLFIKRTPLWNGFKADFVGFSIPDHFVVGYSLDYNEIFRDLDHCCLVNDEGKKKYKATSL

As to `CC(=O)O[C@H]1CC[C@]2(C)[C@H]3CC=C4[C@@H]5[C@@H](C)[C@H](C)CC[C@]5(C(=O)O)CC[C@@]4(C)[C@]3(C)CC[C@H]2C1(C)C` [UAA, ursolic acid acetate], the Kd – broadly, the concentration at which binding is half-saturated – was 2.84 µM. With iso-mukaadial acetate [IMA], the dissociation constant (Kd) (read-out: Kd) stood at 0.0833 µM.
